Test results: US11884710B2, “Peptide compounds and methods of use in wound healing” (priority 2013, dated 2024)

B1: CAP37: cationic antimicrobial protein of Mr 37 kDa; recombinant CAP37 produced in human embryonic kidney (HEK) 293 cells (protein)
chain: IVGGRKARPRQFPFLASIQNQGRHFCGGALIHARFVMTAASCFQSQNPGVSTVVLGAYDLRRRERQSRQTFSISSMSENGYDPQQNLNDLMLLQLDREANLTSSVTILPLPLQNATVEAGTRCQVAGWGSQRSGGRLSRFPRFVNVTVTPEDQCRPNNVCTGVLTRRGGICNGDGGTPLVCEGLAHGVASFSLGPCGRGPDFFTRVALFRDWIDGVLNNPGP

What was measured:
[1] = system: mouse corneal epithelium abrasion; experiment: In vivo model of corneal wound healing
Procedure: (§1) The mouse corneal epithelium was removed using the AlgerBrush II (The Alger Company, Inc., Lago Vista, Tex.), and corneal abrasions were treated at 0 hours and 16 hours with peptide 95-122 (10^−5 M), or were left untreated in 0.9% sodium chloride (saline vehicle) Wound healing was monitored at 0, 16, and 24 hours using fluorescein staining and a camera-equipped inverted microscope. Data are represented as the percentage of wound closure at 16 hours and 24 hours and are expressed as means±SEM. The data are representative of at least 6 mice per group. *P<0.05 by unpaired t-test as compared to vehicle (0.9% sodium chloride) treated controls.
as §1, with “II,” for “II (The Alger Company, Inc., Lago Vista, Tex.),”, “0” for “0 hours”, “120-146WH (10^−8 M or 10^−6” for “95-122 (10^−5”, “vehicle control).” for “vehicle)”, “group. ***P<0.001,” for “group.”
(A) The epithelium of the mouse cornea was removed using the AlgerBrush II, and corneal abrasions were treated at 0 and 16 hours with HB-EGF (250 ng/ml), rCAP37 (250 ng/ml), or vehicle control (normal saline). Wound closure was monitored at 0, 16, 24, and 48 hours using fluorescein staining and a camera-equipped inverted microscope. Data are represented as the percentage of wound closure and are expressed as mean±SEM. The data are representative of at least 6 mice per group. The percentage of wound closure in response to treatment was compared to vehicle-treated controls by unpaired t-test, **P<0.01, *P<0.05. (B) Representative images of mouse corneal wounds are shown at 0, 16, 24, and 48 hours following treatment with vehicle, HB-EGF, and CAP37. Black dotted lines indicate the wound edge.
In vivo model of corneal wound healing: The in vivo model of wound healing was carried out using a disposable biopsy punch (2 mm, Miltex, York, Pa.) to demarcate the mouse cornea and a 0.5 mm burr using the AlgerBrush II (The Alger Company, Inc., Lago Vista, Tex.) to remove the corneal epithelium.
In vivo model of wound healing: Mice were anesthetized using ketamine (100 mg/kg; Bionichepharma, LLC., St. Lake Forrest, Ill.) and xylazine ([…]; Rompun; Bayer Corp., Shawnee Mission, Kans.), and the right cornea was wounded as follows. A disposable biopsy punch (2 mm, Miltex, York, Pa.) was used to demarcate the mouse cornea. The corneal epithelium was carefully removed within the 2 mm demarcated area with a 0.5 mm burr using the AlgerBrush II (The Alger Company, Inc., Lago Vista, Tex.). The corneal abrasions were treated at 0 and 16 hours with HB-EGF (250 ng/ml), rCAP37 (250 ng/ml), or vehicle control (0.9% sodium chloride, pH 5.5, Baxter, Deerfield, Ill.). Corneal abrasions were visualized using sterile fluorescein sodium ophthalmic strips USP (FLUORETS®, Chauvin Laboratory, Aubenas, France) dampened with sterile PBS. […] The areas of the open wound were quantitated using ImageJ software (US National Institutes of Health), and the results were reported as the percentage of wound closure.

[2] = system: full thickness excisional wounds; experiment: Histopathology of swine dermal wounds; assay type: in vivo; set-up: Inflammation, mean histopathology score / Angiogenesis, mean histopathology score / Granulation, mean histopathology score / Epithelization, mean histopathology score: scale not given here; conditions: for epidermal resurfacing and maturation vs saline control, in words: day 14 post-wounding; for Angiogenesis, mean histopathology score / Epithelization, mean histopathology score / Granulation, mean histopathology score / Inflammation, mean histopathology score: wounds harvested on day 14, 3 mg/ml
Procedure: The characteristics that were measured are required to indicate features of a well-healed wound. Inflammation should be low and re-epithelialization high.
(§2) Full thickness excisional wounds were induced on the dorsum of swine (N=3) using a 1.0 cm biopsy punch. Treatments were administered (0.20 ml) to each wound (N=6 wounds per group), and the wounds were dressed with standard occlusive dressing ([…]™, 3M Corporation, St. Paul, Minn.). Treatments were reapplied daily and dressings changed. Clinical wound healing observations and wound area (2 mm) measurements were performed on days 0, 3, 5, 7, 10, and 14 post-wounding. Wound area (2 mm) data were expressed as percentage (%) of wound healing. Animals were terminated on day 14 with wounds harvested and processed for histological evaluation. […] All peptide formulation treatment groups healed faster with greater rate of closure and re-epithelialization over time, as compared to the saline control (Group A).
The histology correlated with the clinical observations. […] There were minimal differences in the amount or character of granulation tissue, inflammation, and angiogenesis. All the wounds were well filled and vascularized.

[3] = system: full thickness excisional wounds; experiment: Swine full thickness excisional dermal wound model; assay type: in vivo; conditions: for Mean Wound Healing (%): topical 3 mg/ml, 0.20 ml daily; for percentage of wound healing vs saline control, in words: 3 mg/ml
Procedure: In this Example, peptide compounds of the presently disclosed inventive concepts were evaluated as to their activity on the dermal wound healing process in a clinically relevant swine full thickness excisional wound model. Three different peptide formulations (Group B, Peptide 95-122 (SEQ ID NO:26); Group C, Peptide 120-146WH (SEQ ID NO:31); and Group D, Peptide 120-146QH-5RMP (SEQ ID NO:33)) were each evaluated at the same concentration (3 mg/ml). Sterile saline served as the control (Group A).
as §2

Row | Molecule | amount of corneal wound healing vs vehicle, in words ([1]; peptide 10^−8 M or 10^−6 M at 0 and 16 hours, read at 16 and 24 hours) | epidermal resurfacing and maturation vs saline control, in words [2] | Angiogenesis, mean histopathology score [2] | Epithelization, mean histopathology score [2] | Granulation, mean histopathology score [2] | Inflammation, mean histopathology score [2] | Mean Wound Healing (%) ([3]; Day 0) | Mean Wound Healing (%) ([3]; Day 3) | Mean Wound Healing (%) ([3]; Day 5) | Mean Wound Healing (%) ([3]; Day 7) | Mean Wound Healing (%) ([3]; Day 10) | Mean Wound Healing (%) ([3]; Day 14) | percentage of wound healing vs saline control, in words ([3]; days 10 and 14 post-wounding) | corneal wound closure, in words ([1]; peptide 10^−5 M at 0 and 16 hours, read at 16 and 24 hours) | percentage of wound healing vs saline control, in words ([3]; days 5, 7, 10, and 14) | reduction of corneal wound size ([1]; CAP37 250 ng/ml at 0 and 16 hours, at 16 hours) | corneal wound closure ([1]; CAP37 250 ng/ml at 0 and 16 hours, by 24 hours)
1 | GTRCQVAGWGSWHSGGRLSRFPRFVNV (derivative of peptide of CAP37 protein) [Peptide 120-146WH] | significantly greater | greater extent of epidermal resurfacing and maturation of the epidermis | 1.7 | 3.7 | 4.0 | 0.5 | 0.0% | 22.1% | 35.9% | 59.7% | 93.5% | 97.5% | significant (p<0.05) increase in the percentage of wound healing | – | – | – | –
2 | LDREANLTSSVTILPLPLQNATVEAGTR (listed as Homo sapiens) [Peptide 95-122] | – | greater extent of epidermal resurfacing and maturation of the epidermis | 2.3 | 4.0 | 4.0 | 0.5 | 0.0% | 28.9% | 41.5% | 70.8% | 99.7% | 100.0% | – | promotes corneal wound healing in vivo | significant (p<0.05) increase in the percentage of wound healing | – | –
3 | B1 | – | – | – | – | – | – | – | – | – | – | – | – | – | – | – | 71% | 83%
